What was measured:
[1] = Stability of lisuride dissolved in water (HPL chromatogram); settings: room temperature, FIG. 3A
[2] = tested on: 5-HT2B receptors of pulmonary arteries in pigs; experiment: 5-HT-induced, 5-HT2B-mediated relaxing of PGF2α-pre-contracted pulmonary arteries in pigs (functional receptor assay); type: cell-based; settings: under physiological conditions; not antagonized by maximum 5-HT concentrations
From the text: (§1) In this case, the pA2 value reflects the negatively decade logarithm of the concentration of an antagonist, which makes it necessary to double the agonist concentration in order to restore the initial effect of the agonist without antagonists.
The vascular reaction in the preparations of pulmonary arteries in pigs, which are pre-contracted by means of PGF2α, were used as an assay for the specific interaction with 5-HT2B receptors (see FIG. 1A). […] Ketanserin is a standard-5HT2A antagonist, SB204741 is a standard-5-HT2B antagonist.

[3] = target: T1, 5-HT2A receptors of coronary arteries in pigs (Sus scrofa, UniProt P50129); experiment: Inhibition of 5-HT2A-mediated, 5-HT-induced contraction of coronary arteries in pigs; type: cell-based; settings: n in own column
T1 construct: 5-HT2A-mediated contraction of the coronary arteries in pigs; from tissue; host or cells: isolated pig coronary artery
From the text: as §1

[4] = tested on: monocrotaline-induced pulmonary high pressure in rats; experiment: Monocrotaline-induced pulmonary high pressure in rats; type: in vivo, male Sprague-Dawley rats; settings: MCT 60 mg/kg s.c.; treatment bid via stomach tube days 15-28; measured day 28; lisuride 0.25 mg/kg, terguride 2.5 mg/kg; average ± SEM, N = 6
From the text: Monocrotaline (MCT) is a toxin from plants of the Crotalaria species, which damages the endothelial cells of the pulmonary arteries after a single injection in rats, with the following hypertrophy of the smooth vascular musculature and persistent severe pulmonary high pressure. The MCT-induced pulmonary hypertension in rats is a well-established and validated model of human pulmonary hypertension, and all now-approved therapeutic agents have shown an action in this model, at least when they were used before the toxically-induced tissue remodeling.
MCT (60 mg/kg) was administered subcutaneously as a single injection in male Sprague-Dawley rats, and an identical volume of isotonic common salt solution was injected into the control animals. […]
On day 28 of the experiment, two hours after the last administration of substance, the animals were narcotized with use of pentobarbital. […] The mean arterial system pressure and the systolic pressure were measured in the right heart ventricle. […]
The s.c. injection of MCT, as described above, results in severe damage of the pulmonary vascular endothelium as well as excessive production of connective tissue and development of a pulmonary hypertension. Accumulation of collagen, measured as hydroxyproline content of the pulmonary tissue and increase of the right-ventricular systolic pressure reflect the described structural and functional changes.

[5] = tested on: Human smooth muscle cells; experiment: 5-HT-stimulated cell growth, 3H-thymidine uptake; type: cell-based; settings: 10 μmol/l test substance, 5-HT 10-8 mol/l, 24 hours; FIG. 2
Method: To determine the cell growth, 3H-thymidine (Amersham) was then added to the cell cultures, and the latter were incubated for 24 hours. After the adhesion of the cells, the culture medium was replaced by a standard medium with 0.2% fetal calf serum to stop growth and incubated again for 48 hours.
In order to test antiproliferative actions of the described substances, the cell cultures were then pre-incubated first at a concentration of 10 μmol/l of the test substances. […] To measure the growth of cells, 3H-thymidine (Amersham) was then added to the cultures, and the latter was incubated for 24 hours. Then, 2 incubations were carried out in iced common salt solution with a phosphate buffer, and then a 30-minute incubation was carried out in iced 10% trichloroacetic acid at 4° C. The cells were then incubated in 0.1 molar NaOH solution (0.5 ml/incubation vessel). After neutralization with acetic acid, the 3H-thymidine uptake was measured with liquid scintillation (as 3× determination).

[6] = tested on: 5-HT-induced effects in rats; settings: cited from earlier work
[7] = Antioxidative action / radical trap (binding of oxygen radicals)
From the text: Because of the small amounts of substances contained in the samples and the short life of the reaction products, it was not possible to isolate them for structural clarification.

T1 sequence (P50129 whole entry): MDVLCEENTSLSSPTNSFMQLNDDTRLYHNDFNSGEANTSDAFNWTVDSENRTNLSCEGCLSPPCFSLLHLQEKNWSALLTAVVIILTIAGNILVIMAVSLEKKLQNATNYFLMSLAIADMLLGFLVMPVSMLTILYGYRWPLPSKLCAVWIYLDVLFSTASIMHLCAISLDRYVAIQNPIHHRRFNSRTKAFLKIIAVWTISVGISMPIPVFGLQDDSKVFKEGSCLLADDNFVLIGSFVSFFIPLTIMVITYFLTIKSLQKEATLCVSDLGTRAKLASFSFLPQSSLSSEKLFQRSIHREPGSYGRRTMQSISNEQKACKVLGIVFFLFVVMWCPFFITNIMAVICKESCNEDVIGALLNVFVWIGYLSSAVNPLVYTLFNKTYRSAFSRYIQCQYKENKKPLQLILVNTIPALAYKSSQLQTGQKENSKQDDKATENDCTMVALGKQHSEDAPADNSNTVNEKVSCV

CCN(CC)C(=O)N[C@H]1C=C2c3cccc4[nH]cc(c34)C[C@H]2N(C)C1 [Lisuride, 3-(9,10-didehydro-6-methylergoline-8alpha-yl)-1,1-diethylurea]
stability dissolved in water [1]: quickly broken down | type of antagonism of the 5-HT2B receptor [2]: irreversible antagonist

CCNC(=O)NC1C=C2c3cccc4[nH]cc(c34)CC2N(C)C1 (stereo not drawn) [N″-Monodesethyllisuride]
5-HT2A pA2 [3]: 8.29 ± 0.03

CCN(CC)C(=O)N[C@H]1C[C@@H]2c3cccc4[nH]cc(c34)C[C@H]2N(C)C1 [Terguride, trans-dihydrolisuride]
Systolic Right-Ventricular Pressure (RVPsys) [4]: 39 ± 3 mmHG | cell proliferation (3H-thymidine uptake) [5]: Reduction of cell proliferation | 5-HT-induced weight increase of the heart and liver ([6]; rats [Hauso 2007]): prevented | behavior abnormalities and fibrotic skin changes at the injection sites of 5-HT ([6]; rats [Hauso 2007]): suppressed | development of pulmonary valve failure ([6]; rats, daily 5-HT over 4 months [Hauso 2007]): not detectable | free oxygen radicals taken up by an individual molecule [7]: up to 4
